Test: recombinant barcode read abundance after kanamycin selection (control-corrected) (log10(CPM+1)); higher = more efficient recombination; sequences stand for … in AGTGCAGAGAAAATCGGCCAGTTTTCTCTGCCTGCAGTCCGCATGCCGT…AGATTTATGCAGCGGACTGCCTTTCTCCCAAAGTGATAAACCGGACAGTATCATGGACCGGTTTTCCCGGTAATCCGTATTTGCAAGGTTGGTTTCACT; site = the 11-nt target
Procedure, shortened: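 Duplicate cultures were plated either on chloramphenicol/ampicillin LB agar, serving as control, or on chloramphenicol/ampicillin/kanamycin with 0.1 mM IPTG. These came from a pooled E. coli library co-electroporated with a donor plasmid, each member pairing a target with an IS621 bridge RNA target-binding loop. Recombination efficiency equals averaged, control-corrected counts per million of recombinant-junction barcodes. It is listed as log10(CPM+1).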
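Further: IS621 recombinase and bridge RNA in Escherichia coli cells.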

Sequence	recombinant barcode read abundance (log10)
CTAAGTTCTTGGGTTCTAACCTGTTGCGT (site CTACGTACTAC)	0.0986
CTAATAGCTTGGGTTCTAACCTGTTGCCT (site CTAATAGCTAG)	0.901
CTAATAGCTTGGGTTCTAACCTGTTGCCT (site CTAATGGCTAG)	0.0554
CTAATAGCTTGGGTTCTAACCTGTTGCTA (site CTAATAGCTTA)	0.162
CTAATAGCTTGGGTTCTAACCTGTTGCTA (site CTAATATCTTA)	0.438
CTAATATCTTGGGTTCTAACCTGTTGCTA (site CTAATAGCTTA)	0.0341
CTAATATCTTGGGTTCTAACCTGTTGCTA (site CTAATATCTTA)	0.512
CTAATTGCTTGGGTTCTAACCTGTTGCCT (site CCAATTGCTAG)	0.201
CTAATTGCTTGGGTTCTAACCTGTTGCCT (site CTAATTGCTAG)	0.336
CTACAACCTTGGGTTCTAACCTGTTGCTT (site CTACAACCTAA)	1.28
CTACAACCTTGGGTTCTAACCTGTTGCTT (site CTACACCCTAA)	0.0399
CTACAACCTTGGGTTCTAACCTGTTGCTT (site CTACAGCCTAA)	0.109
CTACAACCTTGGGTTCTAACCTGTTGCTT (site CTACATCCTAA)	0
CTACCCTCTTGGGTTCTAACCTGTTGCCT (site CTACCCTCTAG)	2.4
CTACCCTCTTGGGTTCTAACCTGTTGCCT (site TCTAAGACTGC)	0.122
CTACGCACTTGGGTTCTAACCTGTTGCTG (site CTACGAACTCA)	0
CTACGCACTTGGGTTCTAACCTGTTGCTG (site CTACGCACTCA)	1.68
CTACGCACTTGGGTTCTAACCTGTTGCTG (site CTACGGACTCA)	0.112
CTACGCACTTGGGTTCTAACCTGTTGCTG (site CTACGTACTCA)	0.156
CTACGCTCTTGGGTTCTAACCTGTTGCAC (site CTACGATCTGT)	0.145
CTACGCTCTTGGGTTCTAACCTGTTGCAC (site CTACGCTCTGT)	1.78
CTACGCTCTTGGGTTCTAACCTGTTGCAC (site CTACGGTCTGT)	0.0577

Sequence	recombinant barcode read abundance (log10)
CTACGCTCTTGGGTTCTAACCTGTTGCAC (site CTACGTTCTGT)	0.0706
CTACGTACTTGGGTTCTAACCTGTTGCGT (site CTAAGTTCTAC)	0.0986
CTACGTACTTGGGTTCTAACCTGTTGCGT (site CTACGTACTAC)	0.051
CTACGTCCTTGGGTTCTAACCTGTTGCTA (site CTACGTCCTAA)	0.0386
CTACGTCCTTGGGTTCTAACCTGTTGCTA (site CTACGTCCTCA)	0.0856
CTACGTCCTTGGGTTCTAACCTGTTGCTA (site CTACGTCCTGA)	0.425
CTACGTCCTTGGGTTCTAACCTGTTGCTA (site CTACGTCCTTA)	0.795
CTACTAACTTGGGTTCTAACCTGTTGCGT (site CTACTAACTAA)	0.13
CTACTAACTTGGGTTCTAACCTGTTGCGT (site CTACTAACTAC)	1.07
CTACTAACTTGGGTTCTAACCTGTTGCGT (site CTACTAACTAG)	0.339
CTACTAACTTGGGTTCTAACCTGTTGCGT (site CTACTAACTAT)	0.129
CTACTATCTTGGGTTCTAACCTGTTGCGC (site CTACTATCTGC)	0.937
CTACTATCTTGGGTTCTAACCTGTTGCGC (site TATAACACTCG)	0.188
CTACTATCTTGGGTTCTAACCTGTTGCGT (site CTACTATCTAC)	1.58
CTACTATCTTGGGTTCTAACCTGTTGCGT (site TCGAGTGCTCT)	0.143
CTACTTCCTTGGGTTCTAACCTGTTGCGT (site CTACCTCCTAC)	0.215
CTACTTCCTTGGGTTCTAACCTGTTGCGT (site CTACTTCCTAC)	1.69
CTACTTGCTTGGGTTCTAACCTGTTGCAA (site CTAATTGCTTT)	0.364
CTACTTGCTTGGGTTCTAACCTGTTGCAA (site CTACTTGCTTT)	0.326
CTACTTGCTTGGGTTCTAACCTGTTGCAA (site CTAGTTGCTTT)	0.239
CTACTTGCTTGGGTTCTAACCTGTTGCAA (site CTATTTGCTTT)	0.592
CTAGACACTTGGGTTCTAACCTGTTGCCT (site CTAGACACTAG)	0.612

Sequence	recombinant barcode read abundance (log10)
CTAGACACTTGGGTTCTAACCTGTTGCCT (site CTCGACACTAG)	0.0911
CTAGACACTTGGGTTCTAACCTGTTGCCT (site CTGGACACTAG)	0.0451
CTAGACACTTGGGTTCTAACCTGTTGCCT (site CTTGACACTAG)	0.512
CTAGACCCTTGGGTTCTAACCTGTTGCGG (site ACGCGTTCTAT)	0.25
CTAGACCCTTGGGTTCTAACCTGTTGCGG (site CTAGACCCTCC)	2.56
CTAGACGCTTGGGTTCTAACCTGTTGCCT (site CAAGACGCTAG)	1.41
CTAGACGCTTGGGTTCTAACCTGTTGCCT (site CTAGACGCTAG)	0.677
CTAGACTCTTGGGTTCTAACCTGTTGCAT (site CTAGACTCTAT)	2.88
CTAGACTCTTGGGTTCTAACCTGTTGCAT (site CTAGACTCTCT)	1.75
CTAGACTCTTGGGTTCTAACCTGTTGCAT (site CTAGACTCTGT)	0.161
CTAGACTCTTGGGTTCTAACCTGTTGCAT (site CTAGACTCTTT)	0.365
CTAGCGACTTGGGTTCTAACCTGTTGCGG (site CTAACGACTCC)	0.637
CTAGCGACTTGGGTTCTAACCTGTTGCGG (site CTAGCGACTCC)	1.85
CTAGCGTCTTGGGTTCTAACCTGTTGCTT (site CTAGAGTCTAA)	0.115
CTAGCGTCTTGGGTTCTAACCTGTTGCTT (site CTAGCGTCTAA)	0.776
CTAGCTCCTTGGGTTCTAACCTGTTGCAG (site CTAGCGGCTCT)	0.0535
CTAGCTCCTTGGGTTCTAACCTGTTGCAG (site CTAGCTCCTCT)	1.54
CTAGGACCTTGGGTTCTAACCTGTTGCCA (site CTAGGACCTTG)	1.27
CTAGGACCTTGGGTTCTAACCTGTTGCCA (site CTAGGAGCTAG)	0.233
CTAGGAGCTTGGGTTCTAACCTGTTGCTT (site CTAGGAGCTAA)	0.924
CTAGGAGCTTGGGTTCTAACCTGTTGCTT (site CTAGGAGCTCA)	0.211
CTAGGAGCTTGGGTTCTAACCTGTTGCTT (site CTAGGAGCTGA)	0.0912

Sequence	recombinant barcode read abundance (log10)
CTAGGAGCTTGGGTTCTAACCTGTTGCTT (site CTAGGAGCTTA)	0.0974
CTAGGATCTTGGGTTCTAACCTGTTGCAT (site CTAGGATCTAT)	2.45
CTAGGATCTTGGGTTCTAACCTGTTGCAT (site CTAGGATCTTG)	0.301
CTAGGCTCTTGGGTTCTAACCTGTTGCGG (site CTACGCTCTTC)	0.095
CTAGGCTCTTGGGTTCTAACCTGTTGCGG (site CTAGGCTCTCC)	2.32
CTAGGTACTTGGGTTCTAACCTGTTGCTT (site ATAGGTACTAA)	0.0337
CTAGGTACTTGGGTTCTAACCTGTTGCTT (site CTAGGTACTAA)	0.0303
CTAGTAACTTGGGTTCTAACCTGTTGCCA (site ACGCGTGCTCC)	0.0245
CTAGTAACTTGGGTTCTAACCTGTTGCCA (site CTAGTAACTTG)	0.351
CTAGTTACTTGGGTTCTAACCTGTTGCCT (site CTAATTACTAG)	0.0479
CTAGTTACTTGGGTTCTAACCTGTTGCCT (site CTACTTACTAG)	0.363
CTAGTTACTTGGGTTCTAACCTGTTGCCT (site CTAGTTACTAG)	1.11
CTAGTTACTTGGGTTCTAACCTGTTGCCT (site CTATTTACTAG)	0.177
CTATCCTCTTGGGTTCTAACCTGTTGCAT (site CTAACCTCTAT)	0.233
CTATCCTCTTGGGTTCTAACCTGTTGCAT (site CTACCCTCTAT)	1.01
CTATCCTCTTGGGTTCTAACCTGTTGCAT (site CTAGCCTCTAT)	0.537
CTATCCTCTTGGGTTCTAACCTGTTGCAT (site CTATCCTCTAT)	1.06
CTATGACCTTGGGTTCTAACCTGTTGCTG (site CTATGACCTCA)	1.91
CTATGACCTTGGGTTCTAACCTGTTGCTG (site TCGGAGTCTGC)	0.0682
CTATGCCCTTGGGTTCTAACCTGTTGCGA (site CTATGCCCTTA)	0.129

Reference: the supplement of paper PMC11208160
